Test systems include OVCAR-3 ovarian; MCF7 breast; LOX IMVI melanoma; DU-145 prostate; SNB-75 CNS; HT29 colon; A498 renal; RPMI-8226 leukemia; NCI-H226 lung; HCT-15 colon.
What all share (test): NCI anticancer screen, dose series, 48 h

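Growth conditions: 96-well plates. Treatment: test compound, 48 hours, 5 concentrations. Analysis: linear interpolation between bracketing concentrations; unreached endpoints set to highest concentration. TGI denotes the concentration required for complete inhibition of growth.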

Turning to `C[N+](C)(C)CC1CCCCCCCCCCC1=O` (stereo not given), the TGI in the experiment with OVCAR-3 ovarian, in the experiment with MCF7 breast, in the experiment on LOX IMVI melanoma, in the experiment on DU-145 prostate, in the experiment on SNB-75 CNS and in the experiment on HT29 colon was greater than 100 µM each time. In addition, the TGI with A498 renal, in the experiment with RPMI-8226 leukemia, in the experiment on NCI-H226 lung and in the experiment on HCT-15 colon was greater than 100 µM each time.
As for `NN/C(=N\S(=O)(=O)c1cc2ccccc2s1)Nc1ccc(Cl)cc1`, the TGI with OVCAR-3 ovarian stood at 34.5 µM; in the experiment on MCF7 breast, 42.4 µM; with LOX IMVI melanoma, 38.6 µM; with DU-145 prostate, 32.3 µM; in the experiment on SNB-75 CNS it was 38.7 µM; with HT29 colon it was 38.9 µM. The TGI with A498 renal is 39.5 µM; with RPMI-8226 leukemia, 35.6 µM; in the experiment on NCI-H226 lung it was 36.5 µM; in the experiment with HCT-15 colon, greater than 100 µM.
In the case of `O=C1C=C(C2=CC(=O)C(=O)c3ccccc32)c2ccccc2C1=O`, the TGI in the experiment on OVCAR-3 ovarian was 20.7 µM; with MCF7 breast, 48.3 µM; with LOX IMVI melanoma it was greater than 100 µM; in the experiment on DU-145 prostate, 29.4 µM; in the experiment on SNB-75 CNS, 60.1 µM; in the experiment on HT29 colon it was greater than 100 µM. Moreover, the TGI in the experiment on A498 renal is greater than 100 µM; in the experiment with RPMI-8226 leukemia, 46.2 µM; with NCI-H226 lung it was greater than 100 µM; with HCT-15 colon, greater than 100 µM.
In the case of `C=CC(CCc1ccc(C(=O)OCC)cc1)c1c(N)nc(N)[nH]c1=O` (stereo not given), the TGI with OVCAR-3 ovarian, with MCF7 breast, with LOX IMVI melanoma, in the experiment on DU-145 prostate, in the experiment with SNB-75 CNS and in the experiment on HT29 colon was greater than 100 µM in each case. Moreover, the TGI in the experiment on A498 renal, with RPMI-8226 leukemia, with NCI-H226 lung and with HCT-15 colon was greater than 100 µM throughout.
Regarding `O=C1/C(=C/c2ccc([N+](=O)[O-])cc2)C(=O)N(c2ccccc2)C1c1ccccc1` (stereo not given), the TGI with OVCAR-3 ovarian, in the experiment with MCF7 breast, in the experiment on LOX IMVI melanoma, in the experiment on DU-145 prostate, in the experiment with SNB-75 CNS and with HT29 colon was greater than 10 µM each time. For the same compound, the TGI in the experiment with A498 renal, in the experiment on RPMI-8226 leukemia, with NCI-H226 lung and with HCT-15 colon was greater than 10 µM each time.
Turning to `CCOP(C)(=O)C(N)Cc1ccc(OC)c(OC)c1` (stereo not given), the TGI with OVCAR-3 ovarian, in the experiment on MCF7 breast, with LOX IMVI melanoma, with DU-145 prostate, with SNB-75 CNS and in the experiment on HT29 colon was greater than 100 µM each time. For the same compound, the TGI in the experiment with A498 renal, with RPMI-8226 leukemia, with NCI-H226 lung and in the experiment on HCT-15 colon was greater than 100 µM throughout.
Take `CCN(CC)C(=S)N/N=C(/C)c1cccc(/C(C)=N\NC(=S)N(CC)CC)n1`: the TGI with OVCAR-3 ovarian came out at 7.44 µM; in the experiment with MCF7 breast it was 5.3 µM; with LOX IMVI melanoma, 7.36 µM; in the experiment with DU-145 prostate, 4.83 µM; in the experiment with SNB-75 CNS, 10.2 µM; in the experiment with HT29 colon, 13.2 µM. In addition, the TGI amounted to 4.16 µM in the experiment with A498 renal, 6.17 µM in the experiment with RPMI-8226 leukemia, 4.77 µM in the experiment with NCI-H226 lung and 17.1 µM in the experiment with HCT-15 colon.
`Oc1c(CN2CCOCC2)ccc2cccnc12`: the TGI in the experiment on OVCAR-3 ovarian, with MCF7 breast, in the experiment on LOX IMVI melanoma, with DU-145 prostate, in the experiment on SNB-75 CNS and with HT29 colon was greater than 10 µM throughout. The TGI with A498 renal, in the experiment with RPMI-8226 leukemia, in the experiment on NCI-H226 lung and with HCT-15 colon was greater than 10 µM in each case.
With `COc1cc(Cn2c3c(c4cc(O)ccc42)Cc2ccccc2C3=O)cc(OC)c1`, the TGI was greater than 100 µM in the experiment with OVCAR-3 ovarian; 78.6 µM with MCF7 breast; greater than 100 µM in the experiment with LOX IMVI melanoma; greater than 100 µM in the experiment on DU-145 prostate; 58.5 µM in the experiment on SNB-75 CNS; greater than 100 µM in the experiment on HT29 colon. Besides, the TGI in the experiment on A498 renal is greater than 100 µM; in the experiment on RPMI-8226 leukemia it was 26.5 µM; in the experiment on NCI-H226 lung it was greater than 100 µM; in the experiment with HCT-15 colon, greater than 100 µM.
Take `CCOCc1nc2c(OC)cc(-c3nc4ccc(N5CCN(C)CC5)cc4[nH]3)c(OC)c2[nH]1`: the TGI in the experiment on OVCAR-3 ovarian is 70.6 µM; in the experiment on MCF7 breast, greater than 100 µM; with LOX IMVI melanoma, 42.3 µM; in the experiment on DU-145 prostate, greater than 100 µM; in the experiment with SNB-75 CNS it was 87.1 µM; in the experiment with HT29 colon it was 83 µM. The TGI in the experiment on A498 renal is greater than 100 µM; in the experiment with RPMI-8226 leukemia, greater than 100 µM; in the experiment with NCI-H226 lung it was 81 µM; in the experiment on HCT-15 colon it was greater than 100 µM.
In the case of `O=C1/C(=N/O)Cc2c(Br)ccc(Br)c21`, the TGI is 70.3 µM in the experiment on OVCAR-3 ovarian; greater than 100 µM in the experiment with MCF7 breast; greater than 100 µM in the experiment on LOX IMVI melanoma; greater than 100 µM in the experiment on DU-145 prostate; greater than 100 µM in the experiment on SNB-75 CNS; greater than 100 µM in the experiment on HT29 colon. Further, the TGI with A498 renal, in the experiment with RPMI-8226 leukemia, in the experiment with NCI-H226 lung and with HCT-15 colon was greater than 100 µM in each case.
Regarding `CCOc1cn(C2CC(O)C(CO)O2)c(=O)[nH]c1=O` (stereo not given), the TGI with OVCAR-3 ovarian, in the experiment on MCF7 breast, with LOX IMVI melanoma, in the experiment with DU-145 prostate, with SNB-75 CNS and with HT29 colon was greater than 100 µM in each case. The TGI in the experiment on A498 renal, in the experiment with RPMI-8226 leukemia, in the experiment on NCI-H226 lung and with HCT-15 colon was greater than 100 µM throughout.
Consider `CCOC(=O)c1nc2ccc(C(F)(F)F)cc2nc1NCc1cc(OC)c(OC)c(OC)c1`, for which the TGI in the experiment with OVCAR-3 ovarian is greater than 100 µM; in the experiment on MCF7 breast, greater than 100 µM; with LOX IMVI melanoma, greater than 100 µM; in the experiment with DU-145 prostate, greater than 100 µM; in the experiment on SNB-75 CNS it was 90.6 µM; in the experiment on HT29 colon, greater than 100 µM. Also, the TGI in the experiment with A498 renal is greater than 100 µM; in the experiment on RPMI-8226 leukemia, 48 µM; in the experiment with NCI-H226 lung, greater than 100 µM; in the experiment with HCT-15 colon, greater than 100 µM.
As to `CCOC(=O)/C=C(/C(=O)OCC)n1ccc(=O)n(Cc2cn(COCCOC(C)=O)nn2)c1=O`, the TGI was 33.4 µM with OVCAR-3 ovarian; 28.3 µM in the experiment with MCF7 breast; 41.9 µM in the experiment on LOX IMVI melanoma; greater than 100 µM with DU-145 prostate; greater than 100 µM in the experiment with SNB-75 CNS; 31.9 µM in the experiment on HT29 colon. The TGI in the experiment on A498 renal is 56.1 µM; with RPMI-8226 leukemia it was 50.3 µM; with NCI-H226 lung it was greater than 100 µM; with HCT-15 colon it was 55.6 µM.
Take `CC1(C)NC2C(=O)c3c([nH]c4ccccc34)[C@]3(C)CCC1CC23` (stereo not given in full): the TGI in the experiment with OVCAR-3 ovarian, in the experiment with MCF7 breast, in the experiment with LOX IMVI melanoma, in the experiment with DU-145 prostate, with SNB-75 CNS and with HT29 colon was greater than 100 µM in each case. The TGI with A498 renal, in the experiment with RPMI-8226 leukemia, in the experiment on NCI-H226 lung and in the experiment with HCT-15 colon was greater than 100 µM in each case.
On to `COc1cc(C(=O)N(Cc2cccnc2)C(=S)N(Cc2cccnc2)C(=O)c2cc(OC)c(OC)c(OC)c2)cc(OC)c1OC`, for which the TGI with OVCAR-3 ovarian is greater than 100 µM; in the experiment on MCF7 breast, 34.9 µM; in the experiment on LOX IMVI melanoma, greater than 100 µM; with DU-145 prostate it was greater than 100 µM; with SNB-75 CNS, 56.7 µM; with HT29 colon it was greater than 100 µM. The TGI was 52.9 µM with A498 renal, greater than 100 µM with RPMI-8226 leukemia, greater than 100 µM with NCI-H226 lung and greater than 100 µM in the experiment on HCT-15 colon.

Values taken from PubChem BioAssay (NCI).
